# How the values were obtained:
# D(2) dopamine receptor [1] = target: D(2) dopamine receptor (Homo sapiens, UniProt P14416); test: Binding affinity against [3H]U-86,170-labeled dopamine receptor D2 in cloned CHO cells; format: cell-based
# D(2) dopamine receptor [2] = target: T1, D(2) dopamine receptor (Rattus norvegicus, UniProt P61169); test: Binding affinity for [3H]raclopride-labeled dopamine receptor D2 in rat striatum; format: tissue-based
# Mus musculus [3] = test: Effective dose on hypothermia in mouse when administered subcutaneously; format: functional
# Mus musculus [4] = test: Effective dose on hypothermia in mouse when administered through peroral route; format: functional
# Mus musculus [5] = test: Maximum decrease in temperature when compound is administered subcutaneously; format: functional
# Mus musculus [6] = test: Maximum decrease in temperature when compound is administered through peroral route; format: functional
# Rattus norvegicus [7] = test: Effect on the synthesis rates of dopamine (DOPA accumulation) in the rat ventral limbic brain region at 3.7 uM/kg.; format: functional, Limbic system
# Rattus norvegicus [8] = species: Rattus norvegicus; test: Effect on the synthesis rates of serotonin (5-HTP accumulation) in the rat ventral limbic brain region […]; format: functional, Limbic system
# Mus musculus [9] = test: Antagonism of apomorphine for 0-10 minutes in reserpinized mice when a dose of 0.4 micro mol/kg is administered intraperitoneally; format: functional
# Mus musculus [10] = test: Antagonism of apomorphine for 0-10 minutes in reserpinized mice when a dose of 3.7 micro mol/kg is administered intraperitoneally; format: functional
# Mus musculus [11] = test: Antagonism of apomorphine for 0-10 minutes in reserpinized mice when a dose of 37 micro mol/kg is administered intraperitoneally; format: functional
# Mus musculus [12] = test: Antagonism of apomorphine for 10-20 minutes in reserpinized mice when a dose of 3.7 micro mol/kg is administered intraperitoneally; format: functional
# Mus musculus [13] = test: Ability to stimulate dopaminergic systems by effect on locomotor activity in reserpinized mice when a dose of 3.7 micro mol/kg is administered intraperitoneally; format: functional
# Mus musculus [14] = test: Ability to stimulate dopaminergic systems by effect on locomotor activity in reserpinized mice when a dose of 37 micro mol/kg is administered intraperitoneally; format: functional
# Mus musculus [15] = test: Ability to stimulate dopaminergic systems by effect on locomotor activity in reserpinized mice when a dose of 0.4 micro mol/kg is administered intraperitoneally; format: functional
# Mus musculus [16] = test: Antagonism of apomorphine in reserpinized mice when a dose of 37 micro mol/kg is administered intraperitoneally; format: functional
# Mus musculus [17] = test: Antagonism of apomorphine for 10-20 minutes in reserpinized mice when a dose of 37 micro mol/kg is administered intraperitoneally; format: functional
# Mus musculus [18] = test: Antagonism of apomorphine in reserpinized mice when a dose of 0.4 micro mol/kg is administered intraperitoneally; format: functional
# Mus musculus [19] = test: Antagonism of apomorphine in reserpinized mice when a dose of 3.7 micro mol/kg is administered intraperitoneally; format: functional
# Rattus norvegicus [20] = test: Inhibition of firing rates of dopaminergic neurons in the substantia nigra pars compacta by intravenous injection in rats.; format: functional
# D(2) dopamine receptor [21] = target: T1, D(2) dopamine receptor; test: Inhibitory concentration against [3H]raclopride-labeled dopamine receptor D2 in rat striatum; format: tissue-based
# Mus musculus [22] = test: Time of effect in the face-to-face behavioral assay in the mouse when a dose of 0.4 umol/kg is administered perorally; format: functional
# Mus musculus [23] = test: (§1) Time of effect in the face-to-face behavioral assay in the mouse when a dose of […] is administered perorally; format: functional
# Mus musculus [24] = test: as §1; format: functional; remark: listed apart in the source
# Mus musculus [25] = test: Time of effect in the isolation-induced aggression behavioral assay in the mouse when a dose of 1.1 micro mol/kg is administered perorally; format: functional
# Mus musculus [26] = test: Time of effect in the isolation-induced aggression behavioral assay in the mouse when a dose of 11 micro mol/kg is administered perorally; format: functional
# Mus musculus [27] = test: Time of effect in the isolation-induced aggression behavioral assay in the mouse when a dose of 11 umol/kg is administered intraperitoneally; format: functional
# Mus musculus [28] = test: Time of effect in the isolation-induced aggression behavioral assay in the mouse when a dose of 3.6 micro mol/kg is administered perorally; format: functional
# Mus musculus [29] = test: Time of effect in the isolation-induced aggression behavioral assay in the mouse when a dose of 36 micro mol/kg is administered intraperitoneally; format: functional
# Mus musculus [30] = test: Time of effect in the isolation-induced aggression behavioral assay in the mouse when a dose of 36 micro mol/kg is administered perorally; format: functional
# Mus musculus [31] = test: Time of effect in the isolation-induced aggression behavioral assay in the mouse when a dose of 0.0 micro mol/kg is administered perorally; format: functional
# Mus musculus [32] = test: Time of effect in the isolation-induced aggression behavioral assay in the mouse when a dose of 0.0 umol/kg is administered intraperitoneally; format: functional
# Rattus norvegicus [33] = test: Effect on the synthesis rates of dopamine (DOPA accumulation) in the rat ventral limbic brain region at 10.7 uM/kg.; format: functional, Limbic system
# Rattus norvegicus [34] = test: Effect on the synthesis rates of serotonin (5-HTP accumulation) in the rat ventral limbic brain region 10.7 umol/kg.; format: functional, Limbic system
# Rattus norvegicus [35] = test: Inhibition of firing rates of dopaminergic neurons in the substantia nigra pars compacta by intravenous injection in rats; format: functional
# Rattus norvegicus [36] = test: Inhibition of firing rates of serotonergic neurons in the dorsal raphe nucleus by intravenous injection in rats; format: functional
# Mus musculus [37] = test: Effective dose on hypothermia in mouse when administered subcutaneously (95% confidence levels); format: functional; conditions: sc
# Rattus norvegicus [38] = test: Effect on the synthesis rates of dopamine (DOPA accumulation) in the rat ventral limbic brain region at 3.4 uM/kg.; format: functional, Limbic system
# Rattus norvegicus [39] = test: Effect on the synthesis rates of serotonin (5-HTP accumulation) in the rat ventral limbic brain region 3.4 umol/kg.; format: functional, Limbic system
# Felis catus [40] = species: Felis catus; test: Percent of arterial blood pressure at sympathetic nerve activity (SND) dose value was determined; format: functional
# Felis catus [41] = test: Maximum decrease of arterial blood pressure at sympathetic nerve activity (SND) in anesthetized cat has been observed following 1 mg/kg dose; format: functional; set-up: scale not given: the % may be the effect or the level left
# Felis catus [42] = test: Maximum decrease of sympathetic nerve activity (SND) in anesthetized cat; format: functional; set-up: scale not given: the % may be the effect or the level left
# Felis catus [43] = test: Effective dose at which the sympathetic nerve activity (SND) has been reduced to 50% of the pretreatment value in anesthetized cat; format: functional
# [44] = Mus musculus, po, read-out: ED50
# T1 sequence (P61169 whole entry): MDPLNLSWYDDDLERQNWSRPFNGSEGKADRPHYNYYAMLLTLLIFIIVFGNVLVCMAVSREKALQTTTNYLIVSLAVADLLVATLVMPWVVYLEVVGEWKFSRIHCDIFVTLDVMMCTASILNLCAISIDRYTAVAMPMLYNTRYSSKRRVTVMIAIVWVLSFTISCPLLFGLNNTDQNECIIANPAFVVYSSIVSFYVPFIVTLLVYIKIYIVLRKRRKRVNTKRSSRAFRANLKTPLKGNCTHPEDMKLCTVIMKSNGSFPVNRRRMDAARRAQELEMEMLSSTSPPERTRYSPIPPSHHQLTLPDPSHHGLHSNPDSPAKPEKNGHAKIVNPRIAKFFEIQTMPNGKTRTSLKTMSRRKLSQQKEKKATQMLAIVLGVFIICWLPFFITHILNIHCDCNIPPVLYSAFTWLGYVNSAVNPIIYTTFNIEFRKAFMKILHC
# D(2) dopamine receptor (Homo sapiens, UniProt P14416), sequence (P14416 whole entry): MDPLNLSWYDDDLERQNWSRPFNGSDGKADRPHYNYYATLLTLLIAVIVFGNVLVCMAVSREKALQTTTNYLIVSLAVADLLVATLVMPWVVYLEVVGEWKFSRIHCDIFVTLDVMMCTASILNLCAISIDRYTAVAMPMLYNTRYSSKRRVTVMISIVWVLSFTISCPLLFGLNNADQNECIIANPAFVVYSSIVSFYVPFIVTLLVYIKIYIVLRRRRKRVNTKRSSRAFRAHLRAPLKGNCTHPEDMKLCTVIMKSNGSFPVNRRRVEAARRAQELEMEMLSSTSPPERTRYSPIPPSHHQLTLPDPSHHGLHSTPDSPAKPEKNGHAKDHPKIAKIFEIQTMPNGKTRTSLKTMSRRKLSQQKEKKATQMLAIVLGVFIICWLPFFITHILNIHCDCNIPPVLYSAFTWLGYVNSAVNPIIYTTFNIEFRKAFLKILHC
smiles,measurement,setting,value
CCCN1CC[C@@H]2Cc3c(O)cccc3C[C@H]21,Ki,D(2) dopamine receptor [1],0.5 nM
same,Ki,D(2) dopamine receptor [2],2 nM
same,ED50,"Mus musculus [3]; Mus musculus, sc, read-out: ED50",0.03 µmol/kg
same,ED50,Mus musculus [4]; [44],0.04 µmol/kg
same,Max temperature decrease,Mus musculus [5],7.5
same,Max temperature decrease,Mus musculus [6],10.9
same,Control,Rattus norvegicus [7],-45%
same,Control,Rattus norvegicus [8],-9.5%
same,Locomotor activity,Mus musculus [9],48
same,Locomotor activity,Mus musculus [10],52
same,Locomotor activity,Mus musculus [11],93
same,Locomotor activity,Mus musculus [12],62
same,Locomotor activity,Mus musculus [13],1014
same,Locomotor activity,Mus musculus [14],1625
same,Locomotor activity,Mus musculus [15],739
same,Locomotor activity,Mus musculus [16],43
same,Locomotor activity,Mus musculus [17],53
same,Locomotor activity,Mus musculus [18],56
same,Locomotor activity,Mus musculus [19],47
same,ED50,Rattus norvegicus [20],0.0014 µmol/kg
C=CCN1CC[C@@H]2Cc3c(cccc3OC)C[C@H]21,IC50,D(2) dopamine receptor [21],> 1000 nM
same,ED50,Mus musculus [3],0.6 µM/kg
same,ED50,Mus musculus [4],1.1 µM/kg
same,Time,Mus musculus [22],1.7 s
same,Time,Mus musculus [23],1 s
same,Time,Mus musculus [24],1.5 s
same,Time,Mus musculus [25],109 s
same,Time,Mus musculus [26],257 s
same,Time,Mus musculus [27],570 s
same,Max temperature decrease,Mus musculus [5],4.5
same,Max temperature decrease,Mus musculus [6],5.6
same,Time,Mus musculus [28],198 s
same,Time,Mus musculus [29],600 s
same,Time,Mus musculus [30],397 s
same,Time,Mus musculus [31],5 s
same,Time,Mus musculus [32],5 s
same,Control,Rattus norvegicus [33],-37%
same,Control,Rattus norvegicus [34],-41%
same,ED50,Rattus norvegicus [35],0.05 µmol/kg
same,ED50,Rattus norvegicus [36],0.08 µM/kg
CCCN1[C@@H](C)C[C@@H]2Cc3cccc(OC)c3C[C@@H]21 (racemic),Ki,D(2) dopamine receptor [1],464 nM
same,IC50,D(2) dopamine receptor [21],> 1000 nM
same,ED50,Mus musculus [37],4.4 µmol/kg
same,ED50,Mus musculus [4]; [44],> 101 µmol/kg
same,Max temperature decrease,Mus musculus [5],7.8
same,Max temperature decrease,Mus musculus [6],3.1
same,Control,Rattus norvegicus [38],32%
same,Control,Rattus norvegicus [39],-44%
same,BP,Felis catus [40],85%
same,Control,Felis catus [41],63%
same,Control,Felis catus [42],25%
same,ED50,Felis catus [43],1.18 µmol/kg

# — ChEMBL document CHEMBL1126639, “Centrally acting serotonergic and dopaminergic agents. 2. Synthesis and structure-activity relationships of 2,3,3a,4,9,9a-hexahydro-1H-benz[f]indole derivatives” (J Med Chem, 1993)
